Tested on: E. coli
Assay: Minimum Inhibition Concentration, bacterial recovery grading
Assay type: cell-based
Design: key: −: No bacterial recovery.; +: Trace of contamination (<10colonies).; ++: Light contamination (>100 colonies).; +++: Heavy contamination (continuous smear of growth)
Conditions: E. coli OD 0.441, 2.68 × 10^8 cell/mL

thiourea [Thiourea Ctrl]
Bacterial growth (Minimum Inhibition Concentration) (0.0001 ppm (mg/L)): +++ | Bacterial growth (Minimum Inhibition Concentration) (0.001 ppm (mg/L)): +++ | Bacterial growth (Minimum Inhibition Concentration) (0.01 ppm (mg/L)): +++ | Bacterial growth (Minimum Inhibition Concentration) (0.1 ppm (mg/L)): +++ | Bacterial growth (Minimum Inhibition Concentration) (1 ppm (mg/L)): +++ | Bacterial growth (Minimum Inhibition Concentration) (10 ppm (mg/L)): +++ | Bacterial growth (Minimum Inhibition Concentration) (100 ppm (mg/L)): +++ | Bacterial growth (Minimum Inhibition Concentration) (1000 ppm (mg/L)): +++ | Bacterial growth (Minimum Inhibition Concentration) (10000 ppm (mg/L)): +++ | Bacterial growth (Minimum Inhibition Concentration) (100000 ppm (mg/L)): +++ | Bacterial growth (Minimum Inhibition Concentration) (1000000 ppm (mg/L)): −

Source: patent US20210024756A1, “STABILIZED COPPER GLASS” (CORNING INCORPORATED, priority 2018, published 2021)
